In patent US20090175924A1, “COATED STENT” (BIONERIS AB, priority 2002, published 2009):

Legend:
[1] = system: mice; format: in vivo; conditions: intravenous
Method: A method described by S. Irwin (Psychopharmacologica, 1968, 13, 222) was used to detect general physiological, behavioural and toxic effects of a series of compounds. The tested compounds were administered intra veneously to mice (3 animals per compound and dose) and the behavioural modification and neurotoxicity symptoms such as mortality, sedation, excitation, aggressiveness, straub, writhes, convulsions, tremor, exophtalamos, salivation, lacrimation, piloerection, defecation, fear, traction, reactivity to touch, loss of righting reflex, sleep, motor incoordination, muscle tone, stereotypies, catalepsy, grasping, ptosis, difficulty in respiration, corneal reflex, analgesia and gait were recorded compared to a control group, Furthermore, rectal temperature and pupil diameter were recorded.

[2] = system: Wistar rats; assay: Neointima formation after balloon catheter injury of the carotid artery in rats; format: in vivo, rat; conditions: for elasticity of the vessel walls (microscopic investigation): compared to the control group; for Neointima formation / Reduction (%) of neointima formation: rat carotid, 14 days post-operatively, 1 mg/kg/hr; for Neointima formation: subcutaneous osmotic minipumps; for Reduction (%) of neointima formation: versus saline control, osmotic minipumps
Method: The effects on neointima formation was assessed after inducing vessel injury in rats with a balloon catheter. Neointima formation is an important part in the process of restenosis. Adult mate Wistar rats (250-260 g) were housed under standard conditions and were fed with commercial rat chow and water ad libitum. During the experiment D-myo-inositol-1,2,6-trisphosphate (IP3) was administered via subcutaneously operated osmotic minipumps with a dose level of 1 mg/kg/hr. A control group received saline solution by osmotic minipumps. The animals were anaesthetised with an intraperitoneal injection of ketamine, 100 mg/kg, (MTC Pharmaceuticals, Cambridge, Ontario, Canada) and xylazine, 10 mg/kg (Bayer Inc., Etobicoke, Ontario, Canada). Using a dissecting microscope, the left carotid artery was exposed on the ventral side of the neck via a midline incision. The bifurcation of the carotid artery was located and two ligatures were placed around the external carotid artery, which was then tied off with the distal ligature. After temporarily occluding the internal carotid artery with a vascular clamp, a small incision was made between the two ligatures placed around the external carotid artery to introduce the endothelial denudation device, an inflated […] Fogarty embolectomy catheter (Baxter Healthcare, Buckinghamshire, UK). Each animal was de-endothelialised by three passages of the catheter and the carotid artery was tied off proximal to the incision hole. The clamp was removed and the pulse of the carotid artery was rechecked. The skin incision was closed with a single suture. 14 days post-operatively, the animals were sedated. An abdominal incision was made to access the abdominal aorta for insertion of a cannula connected to a perfusion apparatus. The animals where killed by an overdose of anaestetic and then perfused with heparinised phosphate buffered saline (pH 7.4) at a rate of 100 ml/min per kg body weight and a pressure of 120 mm Hg. After replacement of saline, 4% paraformaldehyde in isotonic saline was introduced at the same flow rate. After fixation in situ, the carotids were dissected free. Three mid-carotid segments, approximately 10 mm long were rinsed and placed in 4% parafomaldehyde for another 16 hours before embedding and freezing in Tissue-Tek OCT media (Miles Inc., Elkhart, Ind., USA). Frozen sections were stained with Movat's pentachrome and immunohistochemistry was performed using antibodies in order to examine the process of restenosis by measurement of the neointima formation.
In a procedure similar to the one described in Example 3, D-3,4,5-tri-O-(phenylcarbamoyl)myo-inositol-1,2,6-trisphosphate (PP 11-201) was added with the result shown below: […]

[3] = system: Human pulmonary artery smooth muscle cells (HPASMCs); assay: FGF2-stimulated proliferation of smooth muscle cells (3H-thymidine incorporation); format: cell-based; conditions: 1 nM FGF2, 24 hours
Method: Vascular smooth muscle cell proliferation contributes to restenosis after coronary angioplasty. Human pulmonary artery smooth muscle cells (HPASMCs) were maintained in Medium 231 supplemented with Smooth muscle Growth Supplement. The cells, medium and supplement were obtained from Caascade Biologics Inc., Portland, Oreg., USA.
The cells were grown as monolayer culture in 100-mm diameter plastic tissue culture dishes (Nunc, Roskilde, Denmark) with 10 ml medium in 37° C. in a humidified atmosphere of 95% air and 5% CO2 and subcultured at 4- to 6-day intervals. For measurement of cell growth, cells were seeded at density 5.0*10^3/well in 96 well dishes in DMEM+0.2% FBS for 3 days. Culture medium was then removed and cells were seeded in DMEM+0.2% FBS with 1 nM of basic fibroblast growth factor (FGF2). The addition of FGF2 induces cell proliferation of the HPASMCs. The FGF2 used was a recombinant human substance from Boehringer Mannheim Biochemica, Espoo, Finland. Various concentrations of D-myo-inositol-1,2,6-trisphosphate (IP3) were added and the number of parallel wells in each treatment was four. The proliferation of cells was analysed after 24 hours of incubation by labelling each well with 0.2 μCi of ^3H-thymidine for two hours. After that the cells were trypsinated and harvested on a filter. A Melt-on scintillator (Meltilex™ A; Wallac, Turku, Finland) was allowed to melt on the filter. The radioactivity of the sheets was counted on a liquid scintillator counter (1450 Microbeta Wallac, Turku, Finland).
Stimulation of proliferation was inhibited by the addition of IP3 with the following result:
In a procedure similar to the one described in Example 1, D-3,4,5-tri-O-(phenylcarbamoyl) myo-inositol-1,2,6-trisphosphate (PP 11-201) was added with the result shown below: […]

Compound: 1,2-O-ethylene-β-D-fructopyranoside-2,3,4-trisphosphate
- Dose where effects are observed [1]: >512 mg/kg

Compound: O=P(O)(O)OC1CN(CCc2ccccc2)CC(OP(=O)(O)O)C1OP(=O)(O)O (centres unmarked) [1,5-dideoxy-1,5-imino-N-(2-phenylethyl)arabinitol-2,3,4-trisphosphate]
- Dose where effects are observed [1]: >512 mg/kg

Compound: CCCCC(=O)OC1C(OC(=O)CCCC)C(OP(=O)(O)O)C(OP(=O)(O)O)C(OP(=O)(O)O)C1OC(=O)CCCC [D-3,4,5-tri-O-pentanoyl-myo-inositol-1,2,6-trisphosphate]
- Dose where effects are observed [1]: 128 mg/kg

Compound: CCC(=O)OC1C(OC(=O)CC)C(OP(=O)(O)O)C(OP(=O)(O)O)C(OP(=O)(O)O)C1OC(=O)CC [D-3,4,5-tri-O-propanoyl-myo-inositol-1,2,6-trisphosphate]
- Dose where effects are observed [1]: 256 mg/kg

Compound: O=C(O)CP(=O)(O)O[C@@H]1[C@H](OP(=O)(O)CC(=O)O)[C@H](O)[C@@H](O)[C@H](O)[C@H]1OP(=O)(O)CC(=O)O [D-myo-inositol-1,2,6-tris(carboxymetylphosphonate)]
- Dose where effects are observed [1]: >512 mg/kg

Compound: O=P(O)(O)O[C@@H]1[C@H](OP(=O)(O)O)[C@H](O)[C@@H](O)[C@H](O)[C@H]1OP(=O)(O)O [IP3, D-myo-inositol-1,2,6-trisphosphate]
- Dose where effects are observed [1]: >512 mg/kg
- elasticity of the vessel walls (microscopic investigation) [2]: improved
- Neointima formation [2]: 0.48 mm^2
- Reduction (%) of neointima formation [2]: 57%
- inhibition (%) of FGF2-stimulated proliferation ([3]; 1 μM): 61%
- inhibition (%) of FGF2-stimulated proliferation ([3]; 10 μM): 44%
- inhibition (%) of FGF2-stimulated proliferation ([3]; 100 μM): 68%

Compound: O=C(Nc1ccccc1)O[C@@H]1[C@@H](OC(=O)Nc2ccccc2)[C@@H](OP(=O)(O)O)[C@@H](OP(=O)(O)O)[C@H](OP(=O)(O)O)[C@H]1OC(=O)Nc1ccccc1 [PP 11-201, D-3,4,5-tri-O-(phenylcarbamoyl)myo-inositol-1,2,6-trisphosphate]
- elasticity of the vessel walls (microscopic investigation) [2]: improved
- Neointima formation [2]: 0.43 mm^2
- Reduction (%) of neointima formation [2]: 62%
- inhibition (%) of FGF2-stimulated proliferation ([3]; 0.1 μM): 49%
- inhibition (%) of FGF2-stimulated proliferation ([3]; 1 μM): 61%
- inhibition (%) of FGF2-stimulated proliferation ([3]; 10 μM): 70%

Compound: CCCCOC[C@H]1O[C@H](OC)[C@H](OP(=O)(O)O)[C@@H](OP(=O)(O)O)[C@@H]1OP(=O)(O)O [methyl-6-O-butyl-α-D-glycopyranoside-2,3,4-trisphosphate]
- Dose where effects are observed [1]: 256 mg/kg

Compound: methyl-6-O-butyl-α-D-mannopyranoside-2,3,4-trisphosphate
- Dose where effects are observed [1]: >512 mg/kg
